Results published in paper PMC12628652, “A Validated UPLC‐MS/MS Method for Monitoring Temozolomide and Perillyl Alcohol Metabolites in Biological Matrices: Insights From a Preclinical Pharmacokinetic Study” (Biomedical Chromatography, 2025).
Entries after “also recorded” stand apart in the source; their conditions may differ.

Legend:
[1] = Pharmacokinetic study in rats after single oral administration of POH and TMZ (plasma, UPLC-MS/MS); type: in vivo, Male Wistar rats; conditions: rat plasma; for Tmax / Cmax / half-life / k el / AUC(0-t): male, Wistar; for AUC(0-t): read-out: AUC0–24h
Method: Approximately 200 μL of whole blood was collected from the tail vein of each rat. Samples were centrifuged at 3500 rpm for 10 min at 20°C to separate the plasma. Plasma samples were then subjected to liquid–liquid extraction with ACN. The mixture was centrifuged again at 3500 rpm for 10 min at 4°C. The resulting supernatant was filtered through hydrophobic 0.22 μm membranes and transferred to autosampler vials. A 2 μL aliquot of each sample was injected into the UPLC‐MS/MS system for analysis.
Thawed plasma samples (50 μL) were also prepared by protein precipitation. Each sample was mixed with 50 μL of IS solution and 900 μL of ACN, followed by centrifugation at 3500 rpm for 10 min at 20°C. The supernatants were filtered and analyzed as described. All dilutions were performed based on analyte concentration to ensure compliance with the method's validated dynamic range.
(§1) The pharmacokinetic and biodistribution study was conducted in accordance with ethical guidelines and approved by the Animal Ethics Committee of the Universidade Estadual do Centro‐Oeste, Brazil (Protocol No. 026/2023). Male Wistar rats (n = 6 for pharmacokinetics; n = 4 for biodistribution), weighing approximately 200 g, were housed under controlled environmental conditions (12 h light/dark cycle, 35% relative humidity, and temperature of 23°C ± 2°C). Animals had free access to food and water, which were withheld 10 h prior to drug administration and resumed 2 h afterward.
(§2) Each animal received a single oral dose of POH (47 mg/kg) and TMZ (2 mg/kg). For pharmacokinetic profiling, blood samples were collected via the tail vein into heparinized tubes at predefined time points: 0.5, 1, 2, 4, 8, 12, and 24 h post‐administration. For biodistribution analysis, a separate cohort of rats (n = 4) was sacrificed 4 h after dosing. Organs, including the brain, liver, lungs, kidneys, and spleen, were collected, homogenized, and stored at −20°C for subsequent quantification, as detailed in Section 3.2.
Pharmacokinetic parameters were calculated using non‐compartmental analysis with the PKSolver plugin for Microsoft Excel. The following parameters were determined: area under the plasma concentration–time curve from 0 to 24 h (AUC0–24h), maximum plasma concentration (Cmax), time to reach Cmax (tmax), elimination half‐life (t1/2), volume of distribution (VD), and total clearance (CL).

[2] = Biodistribution study in rats 4 h after single oral administration of POH and TMZ; type: in vivo, Male Wistar rats; conditions: n = 4; for tissue concentrations (brain, liver, spleen, kidney, lung), in words: rats
Method: Following blood collection, animals were anesthetized and euthanized, and their organs (kidneys, liver, spleen, brain, and lungs) were promptly excised and stored at −20°C. Tissue samples were homogenized in PBS (pH 7.4) at a ratio of 1 part tissue to 5 parts buffer (w/v), using a mechanical homogenizer equipped with a 5 mm probe.
For chromatographic analysis, 200 μL of each tissue homogenate was mixed with 50 μL of IS solution (final IS concentration: 100 ng/mL) and 750 μL of ACN to reach a final volume of 1 mL. The mixture was centrifuged at 3500 rpm for 10 min at 20°C. The supernatant was collected, filtered through a 0.22 μm membrane, and transferred to injection vials for UPLC‐MS/MS analysis. When necessary, samples were diluted appropriately to ensure analyte concentrations fell within the validated linear range.
as §1, §2

[3] = single oral dose POH 47 mg/kg and TMZ 2 mg/kg, n = 6
[4] = rat brain, 4 h after single oral dose POH 47 mg/kg and TMZ 2 mg/kg
[5] = 4 h after single oral dose POH 47 mg/kg and TMZ 2 mg/kg

Tmax ([1]; single oral dose POH 47 mg/kg) [h] | Cmax [1, 3] [ng/mL] | Tmax [1, 3] [h] | half-life [1, 3] [h] | k el [1, 3] [s⁻¹] | AUC(0-t) [1, 3] [ng·h/mL] | CL [1, 3] [mL/min/kg] | Vd [1, 3] [L/kg] | brain concentration / CNS penetration, in words [2, 4] | hepatic accumulation, in words ([2]; rat liver, 4 h after single oral dose POH 47 mg/kg and TMZ 2 mg/kg) | tissue concentrations (brain, liver, spleen, kidney, lung), in words [2, 5] | concentration at 4 h ([2]; male, Wistar, rat brain, 4 h after single oral dose TMZ 2 mg/kg and POH 47 mg/kg) [ng/mL] | SMILES
– | – | 1 | 18.5 | 1.03e-05 | 2190 | 3.83 | 6.09 | lower brain concentrations | – | lowest tissue concentrations | – | NC(=O)c1[nH]cnc1N [AIC, 5‐aminoimidazole‐4‐carboxamide]

SMILES | Tmax ([1]; single oral dose POH 47 mg/kg) [h] | Cmax [1, 3] [ng/mL] | Tmax [1, 3] [h] | half-life [1, 3] [h] | k el [1, 3] [s⁻¹] | AUC(0-t) [1, 3] [ng·h/mL] | CL [1, 3] [mL/min/kg] | Vd [1, 3] [L/kg] | brain concentration / CNS penetration, in words [2, 4] | hepatic accumulation, in words ([2]; rat liver, 4 h after single oral dose POH 47 mg/kg and TMZ 2 mg/kg) | tissue concentrations (brain, liver, spleen, kidney, lung), in words [2, 5] | concentration at 4 h ([2]; male, Wistar, rat brain, 4 h after single oral dose TMZ 2 mg/kg and POH 47 mg/kg) [ng/mL]
C=C(C)[C@@H]1CC=C(C(=O)O)CC1 [PA, perillic acid] | ≤ 0.5 | 704 | 0.5 | 19 | 1e-05 | 2200 | 3.83 | 6.26 | limited brain penetration; also recorded: lower brain concentrations | marked hepatic accumulation | mainly distributed to liver and kidneys | –
Cn1nnc2c(C(N)=O)ncn2c1=O [TMZ, Temozolomide] | – | 1450 | 1 | 18.4 | 1.03e-05 | 8170 | 1.5 | 1.75 | highest concentration in the brain | – | highest tissue concentrations in all organs | ~1000
